Reference: paper PMC6015222, “Targeting Phosphopeptide Recognition by the Human BRCA1 Tandem BRCT Domain to Interrupt BRCA1-Dependent Signaling” (Cell Chemical Biology, 2018)
pIC50: −log10 of the molar value.

What was measured:
MCPH1 tBRCT 2/3 = biological target: T1, MCPH1 tBRCT 2/3 (Homo sapiens, UniProt Q8NEM0); assay: Competitive MST selectivity: MCPH1 tBRCT; format: binding
T1 construct: MCPH1 tBRCT 2/3 residues 640-835; 6x His (N); made in house; host or cells: E. coli BL21(DE3)
T1 sequence (Q8NEM0 640-835): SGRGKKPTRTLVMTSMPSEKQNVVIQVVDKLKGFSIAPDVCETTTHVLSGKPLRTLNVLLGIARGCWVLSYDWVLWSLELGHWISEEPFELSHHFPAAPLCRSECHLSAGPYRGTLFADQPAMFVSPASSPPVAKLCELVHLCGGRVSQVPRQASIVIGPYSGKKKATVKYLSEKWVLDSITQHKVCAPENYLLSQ
Description: (§1) Protein domains used in the assay were labeled with NT-647-NHS fluorescent dye using the Monolith NT™ Protein Labeling Kit (NanoTemper Technologies). Assays were carried out in 20mM Tris buffer, pH 7.4, with 200mM NaCl, 0.05% Tween-20 and 2mM DTT. For the direct binding assay, 10μl of labeled protein at a final concentration of 20nM was mixed with 10μl of test compound and incubated on ice for 10 min. For the competitive assay, 10μl of labeled protein at a final concentration of 20nM was mixed with 2μM cognate peptide substrate at the EC80 concentration determined by prior titration using a 16-point serial dilution by direct-binding MST. For both assays, samples prepared as above were centrifuged at 15000 rpm at 4°C for 10 min and 4μl of the supernatant was loaded into premium glass capillaries (NanoTemper Technologies). MST analysis was performed at MST power of 40% and LED power of 80%, at 22°C temperature using a Monolith NT.115 (NanoTemper Technologies). An initial “Capillary Scan” was performed to scan for fluorescence across the length of the capillary tray to determine the exact position of each capillary before the MST measurement was started. Test compounds were assayed at 16 different concentrations by serial dilution, and data were analysed using NanoTemper analysis software. Kd values were determined using “T-jump + Thermophoresis” settings. […]

BRCA1 tBRCT = biological target: T2, BRCA1 tBRCT (Homo sapiens, UniProt P38398); assay: Competitive MST: inhibition of BACH1 phosphopeptide binding to BRCA1 tBRCT; settings: MST, BACH1 phosphopeptide vs BRCA1 tBRCT; mean ± SD of three experiments; NB, no binding
T2 construct: BRCA1 tBRCT residues 1646-1859; made in house; host or cells: E. coli BL21(DE3)
Description: Protein domains used in the assay were labeled with NT-647-NHS fluorescent dye using the Monolith NT™ Protein Labeling Kit (NanoTemper Technologies). Assays were carried out in 20mM Tris buffer, pH 7.4, with 200mM NaCl, 0.05% Tween-20 and 2mM DTT. For the direct binding assay, 10μl of labeled protein at a final concentration of 20nM was mixed with 10μl of test compound and incubated on ice for 10 min. For the competitive assay, 10μl of labeled protein at a final concentration of 20nM was mixed with 2μM cognate peptide substrate at the EC80 concentration determined by prior titration using a 16-point serial dilution by direct-binding MST. For both assays, samples prepared as above were centrifuged at 15000 rpm at 4°C for 10 min and 4μl of the supernatant was loaded into premium glass capillaries (NanoTemper Technologies). MST analysis was performed at MST power of 40% and LED power of 80%, at 22°C temperature using a Monolith NT.115 (NanoTemper Technologies). An initial “Capillary Scan” was performed to scan for fluorescence across the length of the capillary tray to determine the exact position of each capillary before the MST measurement was started. Test compounds were assayed at 16 different concentrations by serial dilution, and data were analysed using NanoTemper analysis software. Kd values were determined using “T-jump + Thermophoresis” settings. The change in thermophoresis between different experimental conditions was expressed as the change in the normalized fluorescence (ΔFnorm), which is defined as Fhot/Fcold (F-values correspond to average fluorescence values between defined areas in the curve under steady-state conditions under control (Fcold) or experimental (Fhot) conditions. Titration of the non-fluorescent ligand causes a gradual change in thermophoresis, which is plotted as ΔFnorm to yield a binding curve, which was then fitted to derive binding constants.

TOPBP1 BRCT 1/2 = biological target: T3, TOPBP1 BRCT 1/2 (Homo sapiens, UniProt Q92547); assay: Competitive MST selectivity: TOPBP1 1/2; format: binding
T3 construct: TOPBP1 BRCT 1/2 residues 1-290; 6x His (N); made in house; host or cells: E. coli BL21(DE3)
Description: as §1

MDC1 foci = assay: Radiation-induced nuclear MDC1 foci, HEK293 cells; format: cell-based, human; settings: 100 μM added 6 hr after 16 Gy
Description: (§2) HEK293 cells stably harboring plasmids for Tet-inducible expression of tBRCT domains were seeded at 30,000 cells/well on Matrigel-coated 96-well plates, and treated as indicated. Cells were fixed in 2.5% PFA, for 20’ at RT and incubated in 1x PBS with 10% FBS plus 0.5% TritonX-100 for 1 h for blocking and permeabilization. Primary antibody staining was performed at the indicated dilutions in PBST-BSA buffer (0.7mg/ml BSA, 0.05% Tween-20 in 1XPBS) for 1h at RT. Cells were then extensively washed in PBST-BSA buffer and stained with goat-anti-mouse Alexa 488 secondary antibody (Invitrogen), at 1:1000 dilution along with 2.5μg/ml DAPI for nuclear staining. […] Images were acquired on a high-content imaging platform (Cellomics ArrayScan VTI HCS Reader (Thermo Fisher Scientific)) using a 40x objective. On average ∼800 fields from 6-well replicates, containing a total of ∼10-20K cells were imaged per treatment group and quantified using image analysis software (in-house algorithms using MatLab and commercially available HCS studio 2.0 from Thermo Fisher Scientific). […] Cut-off values for foci number per cell specifying the maximal difference between control and irradiated samples were determined to calculate the percentage of cells positive for radiation-induced foci. […]

TOPBP1 tBRCT 7/8 = biological target: T4, TOPBP1 tBRCT 7/8 (Homo sapiens, UniProt Q92547); assay: Competitive MST selectivity: TOPBP1 7/8; format: binding
T4 construct: TOPBP1 tBRCT 7/8 residues 1264–1493; made in house; host or cells: E. coli BL21(DE3*)
Description: as §1

HEK293 cells = assay: Cell viability after 1 Gy irradiation (calcein AM dye and cell counting); format: cell-based, human; settings: 1–100 μM added 1 hr before 1 Gy, viability 7 days later
Description: HEK293 cells stably harboring plasmids for Tet-inducible expression of tBRCT domains were seeded at a density of 60,000 cells/35mm dish. Compound addition or inducible expression of BRCA1 tBRCT were performed as indicated, when cells were ∼30% confluent, before exposure to 1Gy irradiation. Cells were replenished with media every 3rd day for 7 days, re-suspended in cell dissociation buffer, which was neutralized in 1x PBS. Cells were mixed thoroughly to ensure single cell suspension before measurement of viability using Calcein AM dye and/or cell counting with a hemocytometer. Cell survival fractions were measured using fluorescence readout of Calcein AM with the Tecan Infinite M1000 Pro reader (485nm excitation and 515nm emission) and data were normalized to untreated controls across treatment groups.

RAD51 foci = assay: Radiation-induced nuclear RAD51 foci; format: cell-based, human; settings: 100 μM, 16 Gy, as Figure 5A
Description: as §2

Which “binding to fluorescently labeled MCPH1 tBRCT domain” value (MCPH1 tBRCT 2/3) does the source give for O=C(c1ccc2nc(-c3ccccc3)[nH]c2c1)N1CCN(Cc2ccccc2F)CC1 [Bractoppin, (4-(2-fluorobenzyl)piperazin-1-yl) (2-phenyl-1H-benzo[d]imidazol-6-yl) methanone] here?
The value was “does not detectably bind”.

What about the pIC50 (BRCA1 tBRCT) of the same molecule?
Its pIC50 is 7.13.

What about the “binding to fluorescently labeled TOPBP1 1/2 tBRCT domain” value (TOPBP1 BRCT 1/2) of the same molecule?
The value was “does not detectably bind”.

And the “effect on radiation-induced accumulation of MDC1 at sites of DNA damage” value (MDC1 foci)?
The value was “little effect”.

What about the “binding to fluorescently labeled TOPBP1 7/8 tBRCT domain” value (TOPBP1 tBRCT 7/8) of the same molecule?
Its value is “does not detectably bind”.

And the “effect on cytotoxicity induced by exposure to 1 Gy IR” value (HEK293 cells)?
The value was “significantly enhances cytotoxicity”.

What about the “effect on IR-induced RAD51 foci” value (RAD51 foci) of the same molecule?
Its value is “selectively suppresses”.
